# Measurements published in BindingDB's records for patent US20230414632 (Centre National De La Recherche Scientifique, 2023).
# Biological target: Lysine--tRNA ligase (Homo sapiens, UniProt Q15046)
# Experiment: Homogeneous Time-Resolved Fluorescence Assay
# Method: Homogeneous time-resolved fluorescence (HTRF) assays were performed in black, half-area, flat bottom, 96-well microplates (Costar #3694). Human mitochondrial LysRS with a C-terminal HA-tag (mLysRS-HA), diluted in HTRF buffer (10 mM Tris-HCl pH 7.5, 50 mM NaCl, 10 mM 2-mercaptoethanol, BSA at 1 mg/ml) was added (20 μl at a dimer concentration of 3.75 nM) in the wells of microplates placed on ice. Compounds of formula I or II (1 μl of a 10 mM solution in DMSO) were then added to the wells, and mixing was achieved by pipetting up and down 3-times 10 μl. After centrifugation at 900 g for 1 min at 4° C., plates were placed at 4° C. on thermal modules of an epMotion 5075 v automated pipetting system (Eppendorf). A 10 μl sample of IN-H6 diluted in HTRF buffer at a dimer concentration of 250 nM was added and mixing was achieved by pipetting up and down 3-times 15 μl. Incubation was conducted at 4° C. for 1 h. A 10 μl aliquot of a mix of antibodies prepared in HTRF buffer, directed to the His-tag, conjugated with Eu3+ cryptate (Cisbio #61HISKLB, 0.125 μl per test, prepared as recommended by the supplier), and to the HA-tag, conjugated with XL665 (Cisbio #610HAXLB, 0.375 μl per test, prepared as recommended by the supplier), was added and mixing was achieved by pipetting up and down 3-times 15 μl. Incubation was conducted at 4° C. for 30 min.
# Chain of Lysine--tRNA ligase (Q15046 whole entry): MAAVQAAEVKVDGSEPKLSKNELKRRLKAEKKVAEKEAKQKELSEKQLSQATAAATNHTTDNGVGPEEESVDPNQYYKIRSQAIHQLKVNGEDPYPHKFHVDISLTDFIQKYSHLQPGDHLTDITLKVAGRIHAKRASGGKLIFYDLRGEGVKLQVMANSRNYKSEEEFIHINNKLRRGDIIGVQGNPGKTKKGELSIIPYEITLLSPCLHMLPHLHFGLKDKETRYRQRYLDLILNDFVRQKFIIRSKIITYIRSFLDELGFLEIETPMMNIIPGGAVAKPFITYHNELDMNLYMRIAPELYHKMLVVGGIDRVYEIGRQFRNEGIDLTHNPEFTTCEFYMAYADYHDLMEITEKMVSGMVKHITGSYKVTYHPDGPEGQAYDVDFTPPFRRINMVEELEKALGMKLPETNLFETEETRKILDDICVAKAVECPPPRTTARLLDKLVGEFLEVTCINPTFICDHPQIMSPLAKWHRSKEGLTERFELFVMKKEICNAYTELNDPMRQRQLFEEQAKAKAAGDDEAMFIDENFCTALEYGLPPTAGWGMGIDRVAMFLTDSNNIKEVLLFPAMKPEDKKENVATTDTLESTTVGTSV
row,Structure (SMILES),IC50
1,"COC(=O)C1=C(C)NC(C)=C(C(=O)OC2CCCN(Cc3ccccc3)C2)C1c1cccc([N+](=O)[O-])c1 (stereo unspecified) [US20230414632, Compound I-f]",450 µM
2,"COC(=O)C1=C(C)NC(C)=C(C(=O)OCC(C)C)C1c1ccccc1[N+](=O)[O-] (stereo unspecified) [US20230414632, Compound I-e]",450 µM
3,"COC(=O)C1=C(C)NC(C)=C(C(=O)OCCN2CCN(C(c3ccccc3)c3ccccc3)CC2)C1c1cccc([N+](=O)[O-])c1 (stereo unspecified) [US20230414632, Compound I-g]",400 µM
4,"CCOC(=O)C1=C(C)NC(C)=C(C(=O)OCC)C1c1ccccc1/C=C/C(=O)OC(C)(C)C [US20230414632, Compound I-a]",65 µM
5,"COC(=O)C1=C(C)NC(C)=C(C(=O)OC(C)(C)CN(C)CCC(c2ccccc2)c2ccccc2)C1c1cccc([N+](=O)[O-])c1 (stereo unspecified) [US20230414632, Compound I-c]",320 µM
6,"COCCOC(=O)C1=C(C)NC(C)=C(C(=O)OC/C=C/c2ccccc2)C1c1cccc([N+](=O)[O-])c1 (stereo unspecified) [US20230414632, Compound I-b]",400 µM
